Experimental data taken from patent publication US9351959B2, “Alpha adreneric receptor agonists for treatment of degenerative disc disease” (WARSAW ORTHOPEDIC INC., priority 2008, dated 2016).

Tested on: Rat Chronic Constriction Injury Model
Details: 0.02 mg/kg/day subcutaneously; compared to unloaded polymer depots; FIG. 4
Excerpt: The inventors evaluated the efficacy of a five Month Clonidine/Polymer Drug Depot in the Rat Chronic Constriction Injury Model. The animal model was the Bennett Model (Wistar rat). The purpose: To determine whether a five month polymer clonidine-eluting depot can improve pain associated behavioral responses in a rat model of neuropathic pain.
Experimental Design: Four loose chromic gut ligatures, 1 mm apart, were tied around the common sciatic nerve at mid-thigh. Each animal received treatment of test or control article—according to the dosing described in Table 5.
The inventors have conducted the present study for a period of 64 days and have employed the following two tests: (1) the Hargreaves test; and (2) the von Frey test. The Hargreaves Tests of Thermal Hyperalgesia were conducted on days 7, 14, 21, 28, 35, 42, 49, 56 and 63. The von Frey monofilament test of mechanical allodynia (performed the day following Thermal testing) were conducted on days-8, 15, 22, 29, 36, 43, 50, 57 and 64.

Clc1cccc(Cl)c1N=C1NCCN1 [clonidine, 2,6-dichloro-N-2-imidazolidinyldenebenzenamine]
pain behavioral response (measured as a percentage of baseline) for mechanical allodynia: reduced the behavioral response
